The values below come from ChEMBL document CHEMBL4138105, “LL-37-derived short antimicrobial peptide KR-12-a5 and its d-amino acid substituted analogs with cell selectivity, anti-biofilm activity, synergistic effect with conventional antibiotics, and anti-inflammatory activity” (Eur J Med Chem, 2017).

The subject of series [1] is Staphylococcus aureus. Put plainly: Potency index, ratio of LL-37 MIC to compound MIC for methicillin resistant Staphylococcus aureus CCARM 3090. It is filed as functional.
Series [2] has as its system Escherichia coli. The series can be described thus: Antibacterial activity against Escherichia coli KCTC 1682 after 24 hrs. It is filed as functional. The note with it: KCTC 1682, 24 h.
The test system of series [3] is RAW264.7. Put plainly: Anti-inflammatory activity in mouse RAW264.7 cells assessed as reduction in LPS-induced TNF-alpha production at 10 to 20 uM preincubated for 1 hr followed by LPS stimulation measured after 6 hrs by ELISA. It is filed as functional, cell-based. A general note: An ELISA detects its analyte on a solid surface through an enzyme-linked reagent.
Series [4] relates to RAW264.7. Put plainly: Anti-inflammatory activity in mouse RAW264.7 cells assessed as reduction in LPS-induced MCP-1 production at 10 to 20 uM preincubated for 1 hr followed by LPS stimulation measured after 6 hrs by ELISA. It is filed as functional, cell-based.
Series [5] concerns Staphylococcus aureus. The series can be described thus: Antibacterial activity against methicillin resistant Staphylococcus aureus CCARM 3090 after 24 hrs. It is filed as functional. The note with it: CCARM 3090, 24 h.
The test system of a further series is Enterococcus faecium. Put plainly: Antibacterial activity against Vancomycin-resistant Enterococcus faecium ATCC 51559 after 24 hrs. The note with it: ATCC 51559, 24 h. The format is functional.
The subject of series [6] is Pseudomonas aeruginosa. The series can be described thus: Synergistic antibacterial activity against multidrug-resistant Pseudomonas aeruginosa CCARM 2095 after 72 hrs in presence of chloramphenicol by chequerboard assay. It is filed as functional.
Series [7] concerns RAW264.7. Put plainly: Cytotoxicity against mouse RAW264.7 cells up to 128 uM after 48 hrs by MTT assay. To be noted: raw264.7, 48 h. It is filed as cell-based. (Formazan colour is commonly taken as a measure of viable cells.)
The test system of series [8] is RAW264.7. Put plainly: Anti-inflammatory activity in mouse RAW264.7 cells assessed as reduction in LPS-induced iNOS mRNA expression at 5 uM after 6 hrs by RT-PCR analysis. It is filed as functional, cell-based.
Series [9] relates to Pseudomonas aeruginosa. Put plainly: Synergistic antibacterial activity against multidrug-resistant Pseudomonas aeruginosa CCARM 2095 after 72 hrs in presence of ciprofloxacin by chequerboard assay. It is filed as functional.
Series [10] deals with Escherichia coli. The series can be described thus: Antibacterial activity against Escherichia coli KCTC 1682 in presence of 2.5 mM CaCl2 after 24 hrs. It is filed as functional. The note with it: KCTC 1682, 24 h.
For series [11], the system named is Escherichia coli. Put plainly: Antibacterial activity against Escherichia coli KCTC 1682 in presence of 20% human serum after 24 hrs. The format is functional. The note with it: KCTC 1682, 24 h.
Series [12] has as its system Staphylococcus aureus. Put plainly: Antibacterial activity against Staphylococcus aureus KCTC 1621 in presence of 6 uM NH4Cl after 24 hrs. The note with it: KCTC 1621, 24 h. It is filed as functional.
The nature of series [13]: Hemolytic activity in human RBC at 96 uM after 1 hr relative to control. It is filed as ADME, cell-based, Erythrocyte. The note with it: red blood cells (RBC, erythrocytes), read-out: Activity.

Converted amounts (≈) assume the structure as drawn. The source made the active and inactive calls. The rule behind the calls is not given here.

In general, MIC refers to the lowest concentration found to suppress growth. Turning to `CC[C@H](C)[C@H](NC(=O)[C@H](CCCNC(=N)N)NC(=O)[C@@H](N)CCCCN)C(=O)N[C@H](C(=O)N[C@@H](CCCCN)C(=O)N[C@@H](CC(C)C)C(=O)N[C@H](CC(C)C)C(=O)N[C@@H](CC(C)C)C(=O)N[C@@H](CCCCN)C(=O)N[C@@H](Cc1c[nH]c2ccccc12)C(=O)N[C@@H](CC(C)C)C(=O)N[C@@H](CCCNC(=N)N)C(N)=O)C(C)C`, the Ratio in the series with Staphylococcus aureus [1] is reported as 2 - 4. Moreover, the MIC is 4 µM (≈ 6.26 µg/mL) with Escherichia coli [2]; 4 µM (≈ 6.26 µg/mL) in the series with Staphylococcus aureus [5]; 4 µM (≈ 6.26 µg/mL) against Enterococcus faecium; 16 µM in the series on Escherichia coli [10]; 4 µM in the series on Escherichia coli [11]; 2 µM in the series on Staphylococcus aureus [12]. The outcome in the series with RAW264.7 [3], in the series with RAW264.7 [4] and with RAW264.7 [8] was Active. Further, the results for the “fractional inhibitory concentration index (FICI)” value in the series on Pseudomonas aeruginosa [6] and with Pseudomonas aeruginosa [9] were 0.5 and 0.3125, respectively. Moreover, the Activity entry with RAW264.7 [7] is given as “Non-Toxic”.

With `CC[C@H](C)[C@H](NC(=O)[C@H](CCCNC(=N)N)NC(=O)[C@@H](N)CCCCN)C(=O)N[C@H](C(=O)N[C@@H](CCCCN)C(=O)N[C@H](CC(C)C)C(=O)N[C@H](C(=O)N[C@@H](CC(C)C)C(=O)N[C@@H](CCCCN)C(=O)N[C@@H](Cc1c[nH]c2ccccc12)C(=O)N[C@@H](CC(C)C)C(=O)N[C@@H](CCCNC(=N)N)C(N)=O)[C@@H](C)CC)C(C)C`, the Ratio with Staphylococcus aureus [1] is 2 - 4. Further, the MIC stood at 4 µM (≈ 6.26 µg/mL) in the series on Escherichia coli [2]; 4 µM (≈ 6.26 µg/mL) in the series on Staphylococcus aureus [5]; 4 µM (≈ 6.26 µg/mL) against Enterococcus faecium; 16 µM in the series with Escherichia coli [10]; 8 µM in the series on Escherichia coli [11]; 2 µM in the series on Staphylococcus aureus [12]. For the same molecule, the outcome in the series with RAW264.7 [3], in the series on RAW264.7 [4] and with RAW264.7 [8] was Active. For the same molecule, the “fractional inhibitory concentration index (FICI)” value stood at 0.375 with Pseudomonas aeruginosa [6] and 0.3125 in the series with Pseudomonas aeruginosa [9]. The Activity result in the series on RAW264.7 [7] was “Non-Toxic”.

Regarding `CC[C@H](C)[C@H](NC(=O)[C@H](CC(C)C)NC(=O)[C@@H](CCCCN)NC(=O)[C@@H](NC(=O)[C@@H](NC(=O)[C@H](CCCNC(=N)N)NC(=O)[C@@H](N)CCCCN)[C@@H](C)CC)C(C)C)C(=O)N[C@@H](CC(C)C)C(=O)N[C@@H](CCCCN)C(=O)N[C@@H](Cc1c[nH]c2ccccc12)C(=O)N[C@@H](CC(C)C)C(=O)N[C@@H](CCCNC(=N)N)C(N)=O`, in the series on Staphylococcus aureus [1], the Ratio is 2 - 4. Further, the MIC against Escherichia coli [2] is 4 µM (≈ 6.26 µg/mL); against Staphylococcus aureus [5], 4 µM (≈ 6.26 µg/mL); in the series with Enterococcus faecium, 4 µM (≈ 6.26 µg/mL); in the series on Escherichia coli [10], 8 µM; in the series on Escherichia coli [11], 4 µM; in the series with Staphylococcus aureus [12], 2 µM. In addition, the outcome with RAW264.7 [3], with RAW264.7 [4] and with RAW264.7 [8] was Active. In addition, the figures for the “fractional inhibitory concentration index (FICI)” value with Pseudomonas aeruginosa [6] and in the series with Pseudomonas aeruginosa [9] were 0.375 and 0.5, respectively. For the same molecule, in the series on RAW264.7 [7], the Activity entry is reported as “Non-Toxic”.

As for `CC[C@H](C)[C@H](NC(=O)[C@H](CC(C)C)NC(=O)[C@H](CCCCN)NC(=O)[C@@H](NC(=O)[C@@H](NC(=O)[C@H](CCCNC(=N)N)NC(=O)[C@@H](N)CCCCN)[C@@H](C)CC)C(C)C)C(=O)N[C@@H](CC(C)C)C(=O)N[C@@H](CCCCN)C(=O)N[C@@H](Cc1c[nH]c2ccccc12)C(=O)N[C@@H](CC(C)C)C(=O)N[C@@H](CCCNC(=N)N)C(N)=O`, the Ratio in the series with Staphylococcus aureus [1] was 2 - 4. The MIC in the series with Escherichia coli [2] came out at 8 µM (≈ 12.5 µg/mL); with Staphylococcus aureus [5], 8 µM (≈ 12.5 µg/mL); in the series on Enterococcus faecium, 4 µM (≈ 6.26 µg/mL); in the series with Escherichia coli [10], 8 µM; in the series with Escherichia coli [11] it was 8 µM; with Staphylococcus aureus [12], 2 µM. Further, the outcome in the series on RAW264.7 [3], with RAW264.7 [4] and in the series on RAW264.7 [8] was Active. Further, the results for the “fractional inhibitory concentration index (FICI)” value with Pseudomonas aeruginosa [6] and in the series on Pseudomonas aeruginosa [9] were 0.25 and 0.3125, respectively. In the series with RAW264.7 [7], the Activity entry was “Non-Toxic”. In [13], the hemolysis at 1 h, 96 µM was determined as 50%.
